≈ marks a conversion by molar mass, not a printed value.
Tests used:
BT-474 = assay: Cytotoxicity against human BT474 cells by MTT assay; format: functional, cell-based
SW-620 = assay: Cytotoxicity against human SW620 cells by MTT assay; format: functional, cell-based

Compound `CC1(C)CCC(=O)[C@@]2(C)OO[C@@H]3C[C@@]12CC[C@H]3O` [MERULIN A] has an IC50 (BT-474) of 4.98 µg/mL (≈ 19.6 µM) and an IC50 (SW-620) of 4.84 µg/mL (≈ 19 µM).

For `CC1(C)CCC(=O)[C@H]2OO[C@@H]3C[C@]21CC[C@@]3(O)CO` [MERULINS B], the IC50 (BT-474) was over 10 µg/mL and the IC50 (SW-620) was over 10 µg/mL.

With `CC1(C)CCC(=O)[C@H]2OO[C@@H]3C[C@@]21CC[C@]3(O)CO` [MERULINS C] the IC50 (BT-474) was 1.57 µg/mL (≈ 5.81 µM) and the IC50 (SW-620) was 4.11 µg/mL (≈ 15.2 µM).
